Results on 32 molecules are retold here after patent US10329296B2, “Indole derivatives” (Richter Gedeon Nyrt., priority 2015, dated 2019).

Structures can show the parent of a compound that is named as a salt.

The experiment addresses human MCH1 receptor (Homo sapiens, UniProt Q99705). Nature of the experiment: MCHR1 antagonism functional assay, measuring cytoplasmic calcium concentration ([Ca2+]i).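 Note: human MCH1 AequoScreen cells loaded with calcium-sensitive fluorescent dye, compounds preincubated one hour, then MCH given at its EC80, inhibition of ΔF/F rise relative to DMSO vehicle.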
Protocol: Evaluation of MCHR1 Antagonism in Functional Assay
Cells: human MCH1 (SLC1) AequoScreen® Cell Line (Perkin Elmer ES-370-A, lot No: M4W-A2)
MCH was dissolved in MilliQ water (1 mM), aliquots were taken from the stock solution, and were kept at −20° C. One aliquot was used only once.
Assay buffer: HBSS+2 mM probenecid, pH=7.4
Measuring of Cytoplasmic Calcium Concentration ([Ca^2+]i):
On the day of measurement the culture medium was removed from the cells and a fluorescent Ca^2+-sensitive dye (FLIPR Calcium 5 kit, Molecular Devices R8186) was added to the cells at a 4× dilution compared to the recommended dilution by the manufacturer, in a volume of 100 μl/well, and cells were incubated at 37° C. for 10 min. […] The vehicle (DMSO, control treatment), or the buffer containing test compounds were added to the cells in a volume of 50 μl/well, and cells were incubated at 37° C. for further 60 min.
1 mM stock solution was made from the agonist in distilled water, this solution was distributed into aliquots, which were kept at −20° C. until use. One aliquot was used only once. Fluorescence was detected before addition of MCH for 20 s, and after addition of MCH for 40 s. MCH was applied at an EC80 concentration, the EC80-values were determined individually for every plate/experiment. For this whole MCH dose-response curves were determined on one part of the plate, 4 parameter sigmoidal curves were fitted to the experimental data by nonlinear regression, MCH EC80 values were derived from the fitted curve. The raw fluorescence data were converted into ΔF/F values (the maximum fluorescence value obtained after addition of MCH was normalized to the baseline fluorescence: ΔF/F=(Fmax−Fbaseline)/Fbaseline). […] IC50 values of the tested compounds were determined by fitting 4 parameter sigmoidal curves to inhibition % data. Data processing, including fitting curves by nonlinear regression, was done by SoftMaxPro software.
For the molecule `CC(C)N1CCc2c(I)c3cc(-n4ccc(OCc5ccc(Cl)cn5)cc4=O)ccc3n2CC1` [Example 26, 4-[(5-chloropyridin-2-yl)methoxy]-1-[11-iodo-3-(propan-2-yl)-1H,2H,3H,4H,5H-[1,4]diazepino[1,7-a]indol-9-yl]-1,2-dihydropyridin-2-one maleic acid salt], the IC50 worked out at 38.8 nM.

With `Cc1c2n(c3ccc(-n4ccc(OCc5ccc(Cl)cn5)cc4=O)cc13)CCN(C(C)C)CC2` [Example 34, 4-[(5-chloropyridin-2-yl)methoxy]-1-[11-methyl-3-(propan-2-yl)-1H,2H,3H,4H,5H-[1,4]diazepino[1,7-a]indol-9-yl]-1,2-dihydropyridin-2-one maleic acid salt], the IC50 came to 14.3 nM.

As for `CCN1CCc2cc3cc(-n4ccc(OCc5ccc(F)cc5)cc4=O)ccc3n2CC1` [Example 16, 1-{3-ethyl-1H,2H,3H,4H,5H-[1,4]diazepino[1,7-a]indol-9-yl}-4-[(4-fluorophenyl)methoxy]-1,2-dihydropyridin-2-one], the concentration for half-maximal inhibition (IC50) worked out at 7.2 nM.

Regarding `O=c1cc(OCc2ccccc2F)ccn1-c1ccc2c(c1)cc1n2CCNCC1` [Example 7, 1-{1H,2H,3H,4H,5H-[1,4]diazepino[1,7-a]indol-9-yl}-4-[(2-fluorphenyl)methoxy]-1,2-dihydropyridin-2-one hydrochloride salt], the IC50 stood at 27.7 nM.

In the case of `O=c1cc(OCc2ccc(F)cc2)ccn1-c1ccc2c(c1)cc1n2CCNCC1` [Example 5, 1-{1H,2H,3H,4H,5H-[1,4]diazepino[1,7-a]indol-9-yl}-4-[(4-fluorophenyl)methoxy]-1,2-dihydropyridin-2-one hydrochloride salt], the IC50 worked out at 12 nM.

For the molecule `O=c1cc(OCc2ccccc2)ccn1-c1ccc2c(c1)cc1n2CCN(C2CC2)CC1` [Example 29, 4-(benzyloxy)-1-{3-cyclopropyl-1H,2H,3H,4H,5H-[1,4]diazepino[1,7-a]indol-9-yl}-1,2-dihydropyridin-2-one maleic acid salt], the half-inhibitory concentration (IC50) turned out to be 12.9 nM.

Consider `O=c1cc(OCc2ccc(Cl)cn2)ccn1-c1ccc2c(c1)cc1n2CCN(CCF)CC1`, for which the IC50 was 10 nM.

`O=c1cc(OCc2ccc(C(F)(F)F)cc2)ccn1-c1ccc2c(c1)cc1n2CCNCC1` [Example 8, 1-{1H,2H,3H,4H,5H-[1,4]diazepino[1,7-a]indol-9-il}-4-{[4-(trifluoromethyl)phenyl]methoxy}-1,2-dihydropyridin-2-one hydrochloride salt]: the IC50 was found to be 123 nM.

With `O=c1cc(OCc2ccc(Cl)cn2)ccn1-c1ccc2c(c1)cc1n2CCN(C2CCC2)CC1` [Example 31, 4-[(5-chloropyridin-2-yl)methoxy]-1-(3-cyclobutyl-1H,2H,3H,4H,5H-[1,4]diazepino[1,7-a]indol-9-yl)-1,2-dihydropyridin-2-one maleic acid salt], the half-maximal inhibitory concentration (IC50) was determined as 12.3 nM.

Regarding `O=c1cc(OCc2ccccc2)ccn1-c1ccc2c(c1)cc1n2CCNCC1` [Example 3, 4-(benzyloxy)-1-{1H,2H,3H,4H,5H-[1,4]diazepino[1,7-a]indol-9-yl}-1,2-dihydropyridin-2-one maleic acid salt], the half-inhibitory concentration (IC50) worked out at 17.7 nM.

With `COc1ccc(COc2ccn(-c3ccc4c(c3)cc3n4CCNCC3)c(=O)c2)cc1` [Example 2, 1-{1H,2H,3H,4H,5H-[1.4]diazepino[1,7-a]indol-9-yl}-4-[(4-methoxyphenyl)-methoxy]-1,2-dihydropyridin-2-one hydrochloride salt], the IC50 is 32.9 nM.

As for `O=c1cc(OCc2ccc(F)cn2)ccn1-c1ccc2c(c1)cc1n2CCNCC1` [Example 1, 1-{1H,2H,3H,4H,5H-[1,4]diazepino[1,7-a]indol-9-yl}-4-[(5-fluoropyridin-2-yl)methoxy]-1,2-dihydropyridin-2-one hydrochloride salt], the IC50 worked out at 17.6 nM.

For the molecule `CC(C)N1CCc2c(Cl)c3cc(-n4ccc(OCc5ccc(Cl)cn5)cc4=O)ccc3n2CC1` [Example 24, 1-[11-chloro-3-(propan-2-yl)-1H,2H,3H,4H,5H-[1,4]diazepino[1,7-a]indol-9-yl]-4-[(5-chloropyridin-2-yl)methoxy]-1,2-dihydropyridin-2-one maleic acid salt], the half-inhibitory concentration (IC50) was found to be 18.5 nM.

`O=c1cc(OCc2ccc(Cl)cc2)ccn1-c1ccc2c(c1)cc1n2CCNCC1` [Example 6, 4-[(4-chlorophenyl)methoxy]-1-{1H,2H,3H,4H,5H-[1,4]diazepino[1,7-a]indol-9-yl}-1,2-dihydropyridin-2-one hydrochloride salt]: the half-maximal inhibitory concentration (IC50) worked out at 11.9 nM.

In the case of `CC(C)N1CCc2cc3cc(-n4ccc(OCc5ccc(Cl)cn5)cc4=O)ccc3n2CC1` [Example 20, 4-[(5-chloropyridin-2-yl)methoxy]-1-[3-(propan-2-yl)-1H,2H,3H,4H,5H-[1,4]diazepino[1,7-a]indol-9-yl]-1,2-dihydropyridin-2-one maleic acid salt], the IC50 was 6.2 nM.

`O=c1cc(OCc2ccc(Cl)cn2)ccn1-c1ccc2c(c1)cc1n2CCNCC1` [Example 4, 4-[(5-chloropyridin-2-yl)methoxy]-1-{1H,2H,3H,4H,5H-[1,4]diazepino[1,7-a]indol-9-yl}-1,2-dihydropyridin-2-one dihydrochloride salt]: the IC50 turned out to be 9.8 nM.

As for `CN1CCc2cc3cc(-n4ccc(OCc5ccccc5)cc4=O)ccc3n2CC1` [Example 10, 4-(benzyloxy)-1-{3-methyl-1H,2H,3H,4H,5H-[1,4]diazepino[1,7-a]indol-9-yl}-1,2-dihydropyridin-2-one hydrochloride salt], the half-maximal inhibitory concentration (IC50) worked out at 9.2 nM.

As for `CC(C)N1CCc2cc3cc(-n4ccc(OCc5ccccc5)cc4=O)ccc3n2CC1` [Example 19, 4-(benzyloxy)-1-[3-(propan-2-yl)-1H,2H,3H,4H,5H-[1,4]diazepino[1,7-a]indol-9-yl]-1,2-dihydropyridin-2-one hydrochloride salt], the IC50 was found to be 8.2 nM.

As for `CN1CCc2cc3cc(-n4ccc(OCc5ccc(F)cn5)cc4=O)ccc3n2CC1` [Example 9, 4-[(5-fluoropyridin-2-yl)methoxy]-1-{3-methyl-1H,2H,3H,4H,5H-[1,4]diazepino[1,7-a]indol-9-yl}-1,2-dihydropyridin-2-one maleic acid salt], the IC50 is 14.9 nM.

On to `CC(=O)N1CCc2cc3cc(-n4ccc(OCc5ccc(Cl)cn5)cc4=O)ccc3n2CC1` [Example 17, 1-{3-acetyl-1H,2H,3H,4H,5H-[1,4]diazepino[1,7-a]indol-9-yl}-4-[(5-chloropyridin-2-yl)methoxy]-1,2-dihydropyridin-2-one], for which the IC50 is 18.9 nM.

`CCN1CCc2cc3cc(-n4ccc(OCc5ccc(Cl)cn5)cc4=O)ccc3n2CC1` [Example 15, 4-[(5-chloropyridin-2-yl)methoxy]-1-{3-etil-1H,2H,3H,4H,5H-[1,4]diazepino[1,7-a]indol-9-yl}-1,2-dihydropyridin-2-one]: the IC50 stood at 6.5 nM.

As to `CN1CCc2cc3cc(-n4ccc(OCc5ccc(Cl)cn5)cc4=O)ccc3n2CC1` [Example 11, 4-[(5-chloropyridin-2-yl)methoxy]-1-{3-methyl-1H,2H,3H,4H,5H-[1,4]diazepino[1,7-a]indol-9-yl}-1,2-dihydropyridin-2-one], the IC50 came to 9.6 nM.

Consider `O=c1cc(OCc2ccc(Cl)cn2)ccn1-c1ccc2c(c1)c(Cl)c1n2CCN(CCF)CC1`, for which the IC50 was determined as 15.5 nM.

As to `CN1CCc2cc3cc(-n4ccc(OCc5ccc(Cl)cc5)cc4=O)ccc3n2CC1` [Example 12, 4-[(4-chlorophenol)methoxy]-1-{3-methyl-1H,2H,3H,4H,5H-[1,4]diazepino[1,7-a]indol-9-yl}-1,2-dihydropyridin-2-one maleic acid salt], the IC50 is 9 nM.

Regarding `CC(C)N1CCc2c(Cl)c3cc(-n4ccc(OCc5ccccc5)cc4=O)ccc3n2CC1` [Example 27, 4-(benzyloxy)-1-[11-chloro-3-(propan-2-yl)-1H,2H,3H,4H,5H-[1,4]diazepino[1,7-a]indol-9-yl]-1,2-dihydropyridin-2-one hydrochloride salt], the concentration for half-maximal inhibition (IC50) came out at 29.9 nM.

Regarding `CC(C)N1CCc2cc3cc(-n4ccc(OCc5ccc(F)cn5)cc4=O)ccc3n2CC1` [Example 18, 4-[(5-fluoropyridin-2-yl)methoxy]-1-[3-(propan-2-yl)-1H,2H,3H,4H,5H-[1,4]diazepino[1,7-a]indol-9-yl]-1,2-dihydropyridin-2-one maleic acid salt], the IC50 came out at 15.2 nM.

For the molecule `CCN1CCc2cc3cc(-n4ccc(OCc5ccc(OC)cc5)cc4=O)ccc3n2CC1` [Example 14, 1-{3-ethyl-1H,2H,3H,4H,5H-[1,4]diazepino[1,7-a]indol-9-yl}-4-[(4-methoxyphenyl)methoxy]-1,2-dihydropyridin-2-one], the IC50 worked out at 7.9 nM.

For `CC(C)N1CCc2cc3cc(-n4ccc(OCc5ccc(F)cc5)cc4=O)ccc3n2CC1` [Example 21, 4-[(4-fluorophenyl)methoxy]-1-[3-(propan-2-yl)-1H,2H,3H,4H,5H-[1,4]diazepino[1,7-a]indol-9-yl]-1,2-dihydropyridin-2-one], the IC50 stood at 8 nM.

On to `O=c1cc(OCc2ccc(Cl)cn2)ccn1-c1ccc2c(c1)cc1n2CCN(C2CC2)CC1` [Example 30, 4-[(5-chloropyridin-2-yl)methoxy]-1-{3-cyclopropyl-1H,2H,3H,4H,5H-[1,4]diazepino[1,7-a]indol-9-yl}-1,2-dihydropyridin-2-one maleic acid salt], for which the IC50 was 17.2 nM.

Consider `O=c1cc(OCc2ccc(Cl)cn2)ccn1-c1ccc2c(c1)cc1n2CCN(CC2CC2)CC1` [Example 28, 4-[(5-chloropyridin-2-yl)methoxy]-1-[3-(cyclopropylmethyl)-1H,2H,3H,4H,5H-[1,4]diazepino[1,7-a]indol-9-yl]-1,2-dihydropyridin-2-ond maleic acid salt], for which the IC50 stood at 6.2 nM.

In the case of `CC(C)N1CCc2c(Br)c3cc(-n4ccc(OCc5ccc(Cl)cn5)cc4=O)ccc3n2CC1` [Example 25, 1-[11-bromo-3-(propan-2-yl)-1H,2H,3H,4H,5H-[1,4]diazepino[1,7-a]indol-9-yl]-4-[(5-chloropyridin-2-yl)methoxy]-1,2-dihydropyridin-2-one maleic acid salt], the IC50 amounted to 30.7 nM.

With `CC(C)N1CCc2cc3cc(-n4ccc(OCc5ccc(Cl)cc5)cc4=O)ccc3n2CC1` [Example 22, 4-[(4-chlorophenyl)methoxy]-1-[3-(propan-2-yl)-1H,2H,3H,4H,5H-[1,4]diazepino[1,7-a]indol-9-yl]-1,2-dihydropyridin-2-one maleic acid salt], the half-maximal inhibitory concentration (IC50) stood at 7.2 nM.

By IC50 is commonly meant the concentration that gives 50% inhibition.
